Laboratory results as given in publication PMC7534330, “UHPLC-MS/MS method for pharmacokinetic and bioavailability determination of five bioactive components in raw and various processed products of Polygala tenuifolia in rat plasma” (Pharmaceutical Biology, 2020).

How the values were obtained:
[1] = Pharmacokinetics and absolute bioavailability of five compounds after oral and i.v. administration (UHPLC-MS/MS); type: in vivo; conditions: rat; for MRT last: read-out: MRT0-t; for half-life: read-out: t1/2 (converted); for AUCΔ0-t (dose-normalized) / AUCΔ0-∞ (dose-normalized) / CΔmax (dose-normalized): dose-normalized value
Method: (§1) A Thermo Hypersil Gold C18 column (3.0 × 100 mm, i.d.; 3 μm) was used for chromatographic separation. An aqueous 10 mM ammonium acetate solution (A) and acetonitrile (B) were selected as the mobile phase components. The optimal gradient program involved the following steps: 5% B (0–1 min), changing to 85% B (1–3.5 min), 85% B (3.5–4.0 min), changing to 5% B (4.0–4.1 min) and 5% B (4.1–5.0 min). The flow rate was set to 0.4 mL/min, the autosampler was maintained at 4 °C and the injection volume was 5 μL.
(§2) UHPLC-MS/MS was conducted by an Applied Biosystems (AB) Sciex Exion LC system (Foster City, CA) connected to a 6500 + triple quad tandem mass spectrometer with an electrospray ionization source. All detection and quantifications were carried out in positive multiple reaction monitoring (MRM) mode. The optimized parameters were programmed as follows: ion source temperature, 500 °C; curtain gas pressure, 30 kPa; ion source gas 1 pressure, 55 kPa; ion source gas 2 pressure, 55 kPa; and ion spray voltage, […]. The chemical structures and ion mass spectra of targeted compounds are shown in Figure 1. The precursor ion and product ion were m/z 517.1 → 174.9 for A5, m/z 547.0 → 204.9 for A6, m/z 753.2 → 205.2 for DSS, m/z 681.3 → 443.3 for TFSA, m/z 236.8 → 103.2 for TMCA and m/z 136.9 → 92.9 for IS. All data were acquired by using AB Sciex Analyst software (version 1.6.3).
(§3) After thawing the frozen blood samples at room temperature, a 100 μL aliquot of plasma was spiked with 50 μL of the IS working solution in 2 mL EP tubes, and 750 μL of methanol was added into each of the tubes. Then, these tubes were mixed on a multi-tube Vortexer for 0.5 min before centrifugation at 11,800×g for 10 min. Finally, 200 μL of the obtained supernatant was transferred to a fresh autosampler vial, and then 5 μL of the sample was injected for analysis.
The SD rats were randomly divided into oral and i.v. groups for A5, A6, DSS, TFSA and TMCA administration (n = 6 in each group). The oral doses of A5, A6, DSS, TFSA and TMCA groups were 7.40, 11.60, 16.00, 50.00 and 3.11 mg/kg, respectively, and the corresponding i.v. doses were 0.74, 1.16, 1.60, 5.00 and 0.31 mg/kg, respectively. Blood samples were collected from the suborbital vein into heparinized tubes before and 0, 0.083, 0.17, 0.25, 0.5, 1, 2, 3, 5 and 8 h after administration. The treatment method of blood samples was the same as that mentioned above.
(§4) The elementary pharmacokinetic parameters of plasma samples were analyzed by DAS 2.0 pharmacokinetic software. One-way analysis of variance (ANOVA) was used for statistical comparison for pharmacokinetic and interaction studies. A p-value < 0.05 indicated a significant difference. The main parameters considered were as follows: AUC0–∞ (the area under the blood concentration-time curve from zero to infinity initial plasma concentration), MRT (the mean residence time), Cmax (peak plasma concentration) and Tmax (time to reach Cmax for oral dose), t1/2 (elimination half-life) (He et al. [2015]). The absolute bioavailability (F) was evaluated as follows: F(%)=(AUCoral×Dosei.v.)/(AUCi.v.×Doseoral)×100%

[2] = Pharmacokinetics of five components in rat plasma after oral administration of RPT, LPT and HPT extracts (UHPLC-MS/MS); conditions: male, SD, in vivo, 1.9 g/kg, rat plasma, mean ± SD; for AUC(0-t): n = 6, read-out: AUC0-t; for AUC(0-inf): n = 6, read-out: AUC0-∞; for Cmax: n = 6, read-out: Cmax; for MRT last: n = 6, read-out: MRT0-t; for Tmax: n = 6, read-out: Tmax; for half-life: n = 6, read-out: t1/2 (converted)
Method: as §1, §2, §3
Male SD rats were randomly divided into four groups (n = 6 in each group), including the RPT group, LPT group, HPT group and control group. All oral administration samples were mixed with 0.5% CMC-Na (w/v) and then given to rats at a dose equivalent to 1.9 g/kg of RPT extract. The control group was orally treatment with equal volume of 0.5% CMC-Na solution. After a single administration, all blood samples were collected from the orbital vein into heparinized centrifuge tubes before administration (0 h) and at 0.083, 0.17, 0.25, 0.5, 0.75, 1, 1.5, 2, 3, 5, 8 and 12 h after administration and then centrifuged at 4 °C and 11,800×g for 10 min. The separated supernatant samples were preserved at −80 °C until they were measured.
as §4

[3] = SD, in vivo, iv, i.v. administration, A5 0.74, A6 1.16, DSS 1.60, TFSA 5.00, TMCA 0.31 mg/kg, n = 6
[4] = SD, in vivo, oral administration of pure compound, A5 7.40, A6 11.60, DSS 16.00, TFSA 50.00, TMCA 3.11 mg/kg, n = 6
[5] = oral HPT extract equivalent to 1.9 g/kg of RPT extract
[6] = oral LPT extract equivalent to 1.9 g/kg of RPT extract

COc1cc(C=CC(=O)O)cc(OC)c1OC [TMCA, 3,4,5-trimethoxycinnamic acid]
AUC(0-inf) [1, 3]: 226 ± 61.2 ng·h/mL
AUC(0-t) [1, 3]: 225 ± 60.9 ng·h/mL
Cmax [1, 3]: 1470 ± 238 ng/mL
MRT last [1, 3]: 15 ± 3.6 min
half-life [1, 3]: 37.2 ± 7.8 min
AUC(0-inf) [1, 4]: 971 ± 59.8 ng·h/mL
AUC(0-t) [1, 4]: 968 ± 58.4 ng·h/mL
Cmax [1, 4]: 1110 ± 90.5 ng/mL
MRT last [1, 4]: 40.8 ± 1.8 min
Tmax ([1]; SD, in vivo, oral administration of pure compound, A5 7.40, A6 11.60, DSS 16.00, TFSA 50.00, TMCA 3.11 mg/kg, n = 6, read-out: Tmax): 15 min
half-life [1, 4]: 39 ± 1.2 min
AUCΔ0-t (dose-normalized) ([1]; i.v. administration): 725.52 ± 196.42 ng·h/mL
AUCΔ0-∞ (dose-normalized) ([1]; i.v. administration): 730.65 ± 197.45 ng·h/mL
CΔmax (dose-normalized) ([1]; i.v. administration): 4750.32 ± 768.32 ng/mL
AUCΔ0-t (dose-normalized) ([1]; oral administration): 311.40 ± 18.78 ng·h/mL
AUCΔ0-∞ (dose-normalized) ([1]; oral administration): 312.32 ± 19.23 ng·h/mL
CΔmax (dose-normalized) ([1]; oral administration): 356.33 ± 29.10 ng/mL
F, absolute bioavailability ([1]; oral vs i.v. (i.v. dose 1/10 of oral dose)): 42.91 % of dose
AUC(0-t) [2, 5]: 124 ± 41.3 ng·h/mL
AUC(0-inf) [2, 5]: 184 ± 137 ng·h/mL
Cmax [2, 5]: 63.2 ± 14.2 ng/mL
MRT last [2, 5]: 251 ± 54.6 min
Tmax [2, 5]: 4.2 ± 1.2 min
half-life [2, 5]: 224 ± 140 min
AUC(0-t) [2, 6]: 135 ± 33.4 ng·h/mL
AUC(0-inf) [2, 6]: 173 ± 40.4 ng·h/mL
Cmax [2, 6]: 80.7 ± 11.1 ng/mL
MRT last [2, 6]: 214 ± 15 min
Tmax [2, 6]: 6 ± 2.4 min
half-life [2, 6]: 409 ± 109 min
AUC(0-t) ([2]; oral RPT extract 1.9 g/kg): 91.7 ± 29.1 ng·h/mL
AUC(0-inf) ([2]; oral RPT extract 1.9 g/kg): 132 ± 33.4 ng·h/mL
Cmax ([2]; oral RPT extract 1.9 g/kg): 38.8 ± 13.8 ng/mL
MRT last ([2]; oral RPT extract 1.9 g/kg): 262 ± 31.8 min
Tmax ([2]; oral RPT extract 1.9 g/kg): 7.8 ± 3 min
half-life ([2]; oral RPT extract 1.9 g/kg): 416 ± 178 min
